{"source": "patent US20250262254A1", "about": "“THERAPEUTIC COMPOSITIONS AND METHODS OF USING SEROTONIN MODULATING MICROBIOME-BASED INTERVENTIONS TO TREAT SEROTONIN-RELATED DISEASES OR DISORDERS” (HOLOBIOME, INC, priority 2019, published 2025)", "origin": "cited, not measured here", "tested_on": "mouse model", "conditions": "microbiota-derived tryptamine"}
{"smiles": "NCCc1c[nH]c2ccccc12", "note": "[tryptamine]", "values": [{"measurement": "GI transit", "value": "accelerate GI transit"}]}
